Assay results from article PMC7926675, “Rainbow Trout (Oncorhynchus mykiss) Na^+/H^+ Exchangers tNhe3a and tNhe3b Display Unique Inhibitory Profiles Dissimilar from Mammalian NHE Isoforms” (International Journal of Molecular Sciences, 2021).
pIC50: −log10 of the molar value.

Tests used:
[1] = biological target: T1, tNhe3b (trout Na+/H+ exchanger Nhe3b) (Oncorhynchus mykiss, UniProt B6VDZ5); experiment: two-pulse ammonium chloride acid-load pHi recovery assay (BCECF) in stably transfected AP-1 cells; significant only at […]; type: cell-based
T1 construct: GFP-tagged tNhe3b (cDNA identical to FJ376630.1) stably expressed in NHE-deficient AP-1 cells
T1 sequence (B6VDZ5 1-842): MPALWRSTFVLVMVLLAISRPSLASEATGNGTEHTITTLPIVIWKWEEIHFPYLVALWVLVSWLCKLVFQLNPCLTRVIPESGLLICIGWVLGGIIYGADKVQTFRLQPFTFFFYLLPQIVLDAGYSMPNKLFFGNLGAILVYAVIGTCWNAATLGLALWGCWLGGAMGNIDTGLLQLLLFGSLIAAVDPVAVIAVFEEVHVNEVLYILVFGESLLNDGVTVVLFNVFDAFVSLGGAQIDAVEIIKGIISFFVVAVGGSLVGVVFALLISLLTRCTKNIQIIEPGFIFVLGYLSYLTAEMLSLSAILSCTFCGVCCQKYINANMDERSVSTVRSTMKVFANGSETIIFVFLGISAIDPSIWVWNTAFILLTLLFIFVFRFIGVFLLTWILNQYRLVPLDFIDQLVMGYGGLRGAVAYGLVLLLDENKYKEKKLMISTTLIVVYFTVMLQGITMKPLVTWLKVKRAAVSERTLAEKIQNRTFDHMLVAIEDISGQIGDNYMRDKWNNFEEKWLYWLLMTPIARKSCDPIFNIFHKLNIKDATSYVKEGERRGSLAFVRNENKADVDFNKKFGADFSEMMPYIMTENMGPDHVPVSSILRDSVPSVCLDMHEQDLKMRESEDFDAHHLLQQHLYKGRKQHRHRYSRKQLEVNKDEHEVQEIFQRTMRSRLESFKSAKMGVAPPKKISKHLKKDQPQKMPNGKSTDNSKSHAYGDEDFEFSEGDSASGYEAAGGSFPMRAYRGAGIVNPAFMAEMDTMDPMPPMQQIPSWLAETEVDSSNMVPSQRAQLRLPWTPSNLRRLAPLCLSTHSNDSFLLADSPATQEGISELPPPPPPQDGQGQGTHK

[2] = biological target: T2, tNhe3a (trout Na+/H+ exchanger Nhe3a) (Oncorhynchus mykiss, UniProt A4GWV2); experiment: two-pulse ammonium chloride acid-load pHi recovery assay (BCECF) in stably transfected AP-1 cells, background subtracted; type: cell-based
T2 construct: gene NHE3; GFP-tagged tNhe3a (cDNA identical to NM_001130995) stably expressed in NHE-deficient AP-1 cells
T2 sequence (A4GWV2 1-752): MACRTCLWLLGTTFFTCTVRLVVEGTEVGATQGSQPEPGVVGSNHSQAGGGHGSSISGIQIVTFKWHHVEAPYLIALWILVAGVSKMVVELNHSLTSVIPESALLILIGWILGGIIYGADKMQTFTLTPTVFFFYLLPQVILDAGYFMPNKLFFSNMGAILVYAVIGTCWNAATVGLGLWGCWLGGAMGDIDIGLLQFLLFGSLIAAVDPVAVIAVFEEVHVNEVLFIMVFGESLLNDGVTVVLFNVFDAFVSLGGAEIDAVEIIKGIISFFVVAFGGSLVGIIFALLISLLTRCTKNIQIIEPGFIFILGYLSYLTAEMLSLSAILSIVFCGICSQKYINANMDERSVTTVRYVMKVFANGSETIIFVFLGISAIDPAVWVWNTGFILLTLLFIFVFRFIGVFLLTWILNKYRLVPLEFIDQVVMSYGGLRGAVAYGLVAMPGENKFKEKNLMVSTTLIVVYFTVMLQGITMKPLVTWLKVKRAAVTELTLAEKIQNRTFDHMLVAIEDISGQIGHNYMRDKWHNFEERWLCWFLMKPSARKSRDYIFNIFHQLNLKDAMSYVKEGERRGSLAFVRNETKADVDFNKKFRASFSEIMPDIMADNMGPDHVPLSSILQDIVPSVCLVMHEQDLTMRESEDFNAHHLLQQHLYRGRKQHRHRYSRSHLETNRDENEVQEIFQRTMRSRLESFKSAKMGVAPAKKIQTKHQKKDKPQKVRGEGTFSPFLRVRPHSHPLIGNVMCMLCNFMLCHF

SMILES | pIC50 [1] | pIC50 [2]
N=C(N)NC(=O)c1nc(Cl)c(N)nc1N [amiloride, N-amidino-3,5-diamino-6-chloropyrazinecarboxamide] | ~3.47 | ~5.03
CCN(c1nc(N)c(C(=O)NC(=N)N)nc1Cl)C(C)C [EIPA] | – | ~4.36
